One data set is described as follows: Solubility in water. Type of data set: physicochemical. The text has this: It will be recognized that aqueous solubility of many compounds is pH dependent; in the case of such compounds the solubility of interest herein is at a physiologically relevant pH, for example a pH of about 1 to about 8.
A short description of data set [1]: Bioavailability of ABT-737 in a rat model. Type of data set: in vivo. The conditions noted are these: regardless of formulation.

Each structure is given as a SMILES string. Where two headings read alike, the source gives them in different places.

For `CC1(C)CCC(c2ccc(Cl)cc2)=C(CN2CCN(c3ccc(C(=O)NS(=O)(=O)c4ccc(N[C@H](CCN5CCOCC5)CSc5ccccc5)c(S(=O)(=O)C(F)(F)F)c4)cc3)CC2)C1` [ABT-263], the solubility in the data set “Solubility in water” (pH 2, aqueous buffer, read-out: solubility in water at pH 2) was less than 4 µg/mL; in the data set “Solubility in water” (physiologically relevant pH, about 1 to about 8, read-out: solubility in water), less than 10 µg/mL.

With `CN(C)CC[C@H](CSc1ccccc1)Nc1ccc(S(=O)(=O)NC(=O)c2ccc(N3CCN(Cc4ccccc4-c4ccc(Cl)cc4)CC3)cc2)cc1[N+](=O)[O-]` [ABT-737, N-(4-(4-((4′-chloro-(1,1′-biphenyl)-2-yl)methyl)piperazin-1-yl)benzoyl)-4-(((1R)-3-(dimethylamino)-1-((phenylsulfanyl)methyl)propyl)amino)-3-nitrobenzene-sulfonamide], the Bioavailability in data set [1] is not above 6%.

These data come from patent publication US20100278921A1 (priority 2009, published 2010).
